Laboratory results taken from US7265152B2 (ViroPharma Incorporated, priority 2002, dated 2007).
Like-named read-outs stand apart in the source and are kept apart here.

Tests used:
HCV NS5B = target: T1, HCV NS5B (Hepatitis C virus genotype 1b, UniProt Q9WMX2); test: Inhibition of viral RNA-dependent RNA polymerase (RdRp), in vitro biochemical assay; parameters: species or system HCV genotype 1b virus (BB7); conditions: read-out: HCV pol-BB7 IC50
T1 construct: fusion protein, of which the carboxyl terminal 21 amino acids were removed to enhance its solubility; His tag (GSHHHHHH); made in house; host or cells: E. coli
In short: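 Purified recombinant NS5B from a genotype 1b consensus (BB7), His-tagged, E. coli-expressed, with the C-terminal 21 residues deleted. Inhibition of RdRp activity in vitro was measured, and IC50 is the concentration giving 50% inhibition.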

[1] = test system: HCV replicon (BB7 sequence) in Huh-7-Clone A cells; test: HCV replicon assay: ELISA of NS5A protein in replicon-containing cells (Inhibition of Viral RNA Replication); type: cell-based; conditions: read-out: Replicon
In short: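 Huh-7-Clone A cells carrying subgenomic BB7 HCV replicon (G418-selectable) incubated 72 h with compound. NS5A protein quantified by cell ELISA: glutaraldehyde fixation, anti-NS5A monoclonal plus HRP secondary, TMB read at OD 650 nm. EC50 derived from 8-point serial dilution dose curve.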

[2] = purified His-tagged NS5B (BB7), carboxyl terminal 21 amino acids removed
[3] = Hepatitis C virus, Huh-7-Clone A, NS5A ELISA, 72-hour incubation, ranges of EC50
[4] = HCV NS5B RdRp, BB7, class symbols A-D
[5] = Hepatitis C virus, HCV replicon assay, ranges of EC50
[6] = Hepatitis C virus, ranges of EC50 in HCV replicon assay
[7] = HCV NS5B RdRp, BB7, activity class
[8] = HCV NS5B polymerase, BB7 (genotype 1b), values given as range classes A-D
[9] = Hepatitis C virus, HCV replicon assay, ranges of 50% effective concentration (EC50)
[10] = HCV NS5B RdRp, BB7, reported as range class
[11] = Hepatitis C virus, HCV replicon, range of EC50

Compound: 6-(3-Amino-pyrrolidin-1-yl)-2-(4-fluoro-phenyl)-5-isopropoxy-2,3-dihydro-benzofuran-3-carboxylic acid methylamide [Example 15]
- IC50 (HCV NS5B; [2]): 5000 to 30000 nM
- EC50 ([1]; Huh-7-Clone A, NS5A ELISA, 72-hour incubation, ranges of EC50): < 30000 nM

Compound: CNC(=O)c1c(-c2ccc(F)cc2)oc2cc(N3CCOCC3)c(OCc3ccc(OC)cc3)cc12 [Example 30, 2-(4-Fluoro-phenyl)-5-(4-methoxy-benzyloxy)-6-morpholin-4-yl-benzofuran-3-carboxylic acid methylamide]
- IC50 (HCV NS5B; [2]): ≤ 500 nM
- EC50 [1, 3]: < 1000 nM

Compound: CNC(=O)c1c(-c2ccc(F)cc2)oc2cc(N(C)S(C)(=O)=O)c(OCc3ccc(OC)cc3)cc12 [Example 327, 2-(4-Fluoro-phenyl)-6-(methanesulfonyl-methyl-amino)-5-(4-methoxy-benzyloxy)-benzofuran-3-carboxylic acid methylamide]
- IC50 (HCV NS5B; [4]): ≤ 500 nM
- EC50 [1, 5]: < 1000 nM

Compound: CNC(=O)c1c(-c2ccc(F)cc2)oc2cc(N3CCC(S(C)(=O)=O)C3)c(OC(C)C)cc12 (centres unmarked) [Example 108, 2-(4-Fluoro-phenyl)-5-isopropoxy-6-(3-methanesulfonyl-pyrrolidin-1-yl)-benzofuran-3-carboxylic acid methylamide]
- IC50 (HCV NS5B; HCV NS5B RdRp, BB7 genotype 1b): ≤ 500 nM
- EC50 [1, 6]: < 1000 nM

Compound: CNC(=O)c1c(-c2ccc(F)cc2)oc2cc(N(C)S(C)(=O)=O)c(OCc3ccc4c(c3)C(=O)OC(C)(C)O4)cc12 [Example 329, 5-(2,2-Dimethyl-4-oxo-4H-benzo[1,3]dioxin-6-ylmethoxy)-2-(4-fluoro-phenyl)-6-(methanesulfonyl-methyl-amino)-benzofuran-3-carboxylic acid methylamide]
- IC50 (HCV NS5B; [4]): ≤ 500 nM
- EC50 [1, 5]: < 1000 nM

Compound: CNC(=O)c1c(-c2ccc(F)cc2)oc2cc(C(C)(C)N)c(OC(C)C)cc12 [Example 376, 6-(1-Amino-1-methyl-ethyl)-2-(4-fluoro-phenyl)-5-isopropoxy-benzofuran-3-carboxylic acid methylamide]
- IC50 (HCV NS5B; [7]): ≤ 500 nM
- EC50 [1, 5]: < 1000 nM

Compound: CNC(=O)c1c(-c2ccc(F)cc2)oc2cc(N3CCOCC3)c(OCC(C)O)cc12 (centres unmarked) [Example 252, 2-(4-Fluoro-phenyl)-5-(2-hydroxy-propoxy)-6-morpholin-4-yl-benzofuran-3-carboxylic acid methylamide]
- IC50 (HCV NS5B; [4]): 500 to 5000 nM
- EC50 [1, 5]: < 10000 nM

Compound: CNC(=O)c1c(-c2ccc(F)cc2)oc2cc(-c3c(C)noc3COC)c(OC)cc12 [Example 280, 2-(4-Fluoro-phenyl)-5-methoxy-6-(5-methoxymethyl-3-methyl-isoxazol-4-yl)-benzofuran-3-carboxylic acid methylamide]
- IC50 (HCV NS5B; [4]): ≤ 500 nM
- EC50 [1, 5]: < 1000 nM

Compound: CNC(=O)c1c(-c2ccc(F)cc2)oc2cc(NS(C)(=O)=O)c(-c3cccs3)cc12 [Example 420, 2-(4-Fluoro-phenyl)-6-methanesulfonylamino-5-thiophen-2-yl-benzofuran-3-carboxylic acid methylamide]
- IC50 (HCV NS5B; [8]): ≤ 500 nM
- EC50 [1, 9]: < 1000 nM

Compound: CNC(=O)c1c(-c2ccc(F)cc2)oc2cc(-c3cc(COC)no3)c(OC(C)C)cc12 [Example 242, 2-(4-Fluoro-phenyl)-5-isopropoxy-6-(3-methoxymethyl-isoxazol-5-yl)-benzofuran-3-carboxylic acid methylamide]
- IC50 (HCV NS5B; [10]): 500 to 5000 nM
- EC50 [1, 11]: 30000 nM

Compound: C=CCOc1cc2c(C(=O)NC)c(-c3ccc(F)cc3)oc2cc1NCC [Example 366, 5-Allyloxy-6-ethylamino-2-(4-fluoro-phenyl)-benzofuran-3-carboxylic acid methylamide]
- IC50 (HCV NS5B; [7]): ≤ 500 nM
- EC50 [1, 5]: < 1000 nM

Compound: CNC(=O)c1c(-c2ccc(F)cc2)oc2cc(NCC3CCCO3)c(OC(C)C)cc12 (centres unmarked) [Example 123, 2-(4-Fluoro-phenyl)-5-isopropoxy-6-[(tetrahydro-furan-2-ylmethyl)-amino]-benzofuran-3-carboxylic acid methylamide]
- IC50 (HCV NS5B; HCV NS5B RdRp, BB7 genotype 1b): ≤ 500 nM
- EC50 [1, 6]: < 10000 nM

Compound: CNC(=O)c1c(-c2ccc(F)cc2)oc2cc(-c3noc(C)n3)c(OC)cc12 [Example 50, 2-(4-Fluoro-phenyl)-5-methoxy-6-(5-methyl-[1,2,4]oxadiazol-3-yl)-benzofuran-3-carboxylic acid methylamide]
- IC50 (HCV NS5B; [2]): ≤ 500 nM
- EC50 [1, 3]: < 1000 nM

Compound: CNC(=O)c1c(-c2ccccc2)oc2ccc(C(C)C)cc12 [Example 86, 5-Isopropyl-2-phenyl-benzofuran-3-carboxylic acid methylamide]
- IC50 (HCV NS5B; [2]): ≤ 500 nM
- EC50 [1, 3]: < 10000 nM

Compound: CNC(=O)c1c(-c2ccc(F)cc2)oc2cc(N(C)S(C)(=O)=O)c(OCC(=O)Nc3nncs3)cc12 [Example 416, 2-(4-Fluoro-phenyl)-6-(methanesulfonyl-methyl-amino)-5-([1,3,4]thiadiazol-2-ylcarbamoylmethoxy)-benzofuran-3-carboxylic acid methylamide]
- IC50 (HCV NS5B; [8]): ≤ 500 nM
- EC50 [1, 9]: < 1000 nM

Compound: CNC(=O)c1c(-c2ccc(F)cc2)oc2cc(-c3cc(C)n[nH]3)c(OC(C)C)cc12 [Example 247, 2-(4-Fluoro-phenyl)-5-isopropoxy-6-(5-methyl-2H-pyrazol-3-yl)-benzofuran-3-carboxylic acid methylamide]
- IC50 (HCV NS5B; [10]): 500 to 5000 nM
- EC50 [1, 11]: < 10000 nM

Compound: CNC(=O)c1c(-c2ccc(F)cc2)oc2cc(N)c(OC(C)C)cc12 [Example 16, 6-Amino-2-(4-fluoro-phenyl)-5-isopropoxy-benzofuran-3-carboxylic acid methylamide]
- IC50 (HCV NS5B; [2]): ≤ 500 nM
- EC50 [1, 3]: < 10000 nM

Compound: CNC(=O)c1c(-c2ccc(F)cc2)oc2cc(N(C)S(C)(=O)=O)c(OCc3cccc(C(=O)O)c3)cc12 [Example 312, 3-[2-(4-Fluoro-phenyl)-6-(methanesulfonyl-methyl-amino)-3-methylcarbamoyl-benzofuran-5-yloxymethyl]-benzoic acid]
- IC50 (HCV NS5B; [4]): ≤ 500 nM
- EC50 [1, 5]: < 1000 nM

Compound: CNC(=O)c1c(-c2ccc(F)cc2)oc2cc(OCc3ccccc3)c(OC)cc12 [Example 181, 6-Benzyloxy-2-(4-fluoro-phenyl)-5-methoxy-benzofuran-3-carboxylic acid methylamide]
- IC50 (HCV NS5B; [10]): ≤ 500 nM
- EC50 [1, 11]: < 10000 nM

Compound: CNC(=O)CN(c1cc2oc(-c3ccc(F)cc3)c(C(=O)NC)c2cc1OC)S(C)(=O)=O [Example 331, 2-(4-Fluoro-phenyl)-6-(methanesulfonyl-methylcarbamoylmethyl-amino)-5-methoxy-benzofuran-3-carboxylic acid methylamide]
- IC50 (HCV NS5B; [7]): ≤ 500 nM
- EC50 [1, 5]: < 1000 nM

Compound: CNC(=O)c1c(-c2ccc(C)cc2)oc2ccc(Cl)cc12 [Example 75, 5-Chloro-2-p-tolyl-benzofuran-3-carboxylic acid methylamide]
- IC50 (HCV NS5B; [2]): ≤ 500 nM
- EC50 [1, 3]: < 10000 nM

Compound: CNC(=O)c1c(-c2ccc(F)cc2)oc2cc(N3CCOCC3)c(OC(C)c3ccc(F)cc3)cc12 (centres unmarked) [Example 212, 2-(4-Fluoro-phenyl)-5-[1-(4-fluoro-phenyl)-ethoxy]-6-morpholin-4-yl-benzofuran-3-carboxylic acid methylamide]
- IC50 (HCV NS5B; [10]): ≤ 500 nM
- EC50 [1, 11]: < 1000 nM

Compound: CNC(=O)c1c(-c2ccc(F)cc2)oc2cc(-c3c(C4CC4)noc3COC)c(OC)cc12 [Example 310, 6-(3-Cyclopropyl-5-methoxymethyl-isoxazol-4-yl)-2-(4-fluoro-phenyl)-5-methoxy-benzofuran-3-carboxylic acid methylamide]
- IC50 (HCV NS5B; [4]): ≤ 500 nM
- EC50 [1, 5]: < 1000 nM

Compound: CNC(=O)c1c(-c2ccc(F)cc2)oc2cc(C3CCN(S(C)(=O)=O)C3)c(OC)cc12 (centres unmarked) [Example 334, 2-(4-Fluoro-phenyl)-6-(1-methanesulfonyl-pyrrolidin-3-yl)-5-methoxy-benzofuran-3-carboxylic acid methylamide]
- IC50 (HCV NS5B; [7]): ≤ 500 nM
- EC50 [1, 5]: < 1000 nM

Compound: CNC(=O)c1c(-c2ccc(F)c(Cl)c2)oc2ccc(OC)cc12 [Example 76, 2-(3-Chloro-4-fluoro-phenyl)-5-methoxy-benzofuran-3-carboxylic acid methylamide]
- IC50 (HCV NS5B; [2]): 500 to 5000 nM
- EC50 [1, 3]: < 10000 nM

Compound: CNC(=O)c1c(-c2ccc(F)cc2)oc2cc(N3CCOCC3)c(OCc3cccc(OC)c3)cc12 [Example 210, 2-(4-Fluoro-phenyl)-5-(3-methoxy-benzyloxy)-6-morpholin-4-yl-benzofuran-3-carboxylic acid methylamide]
- IC50 (HCV NS5B; [10]): ≤ 500 nM
- EC50 [1, 11]: < 1000 nM

Compound: CNC(=O)c1c(-c2ccc(F)cc2)oc2cc(C(C)=O)c(C)cc12 [Example 301, 6-Acetyl-2-(4-fluoro-phenyl)-5-methyl-benzofuran-3-carboxylic acid methylamide]
- IC50 (HCV NS5B; [4]): ≤ 500 nM
- EC50 [1, 5]: < 10000 nM

Compound: CNC(=O)c1c(-c2ccc(F)cc2)oc2cc(N(Cc3nsc(Cl)n3)S(C)(=O)=O)c(OC(C)C)cc12 [Example 234, 6-[(5-Chloro-[1,2,4]thiadiazol-3-ylmethyl)-methanesulfonyl-amino]-2-(4-fluoro-phenyl)-5-isopropoxy-benzofuran-3-carboxylic acid methylamide]
- IC50 (HCV NS5B; [10]): ≤ 500 nM
- EC50 [1, 11]: < 10000 nM
